Reference: patent publication US11759462B2, “Spirocyclic compounds as tryptophan hydroxylase inhibitors” (priority 2013, dated 2023)
pIC50: −log10 of the molar value.

Molecular target: T1, Recombinant human TPH1 (MBP tagged) (Homo sapiens, UniProt P17752)
T1 construct: cloning full length human TPH1 cDNA in to a bacterial pMAL-c5E expression vector; made in house; host or cells: E. coli BL21 (DE3)
T1 sequence (P17752 1-444): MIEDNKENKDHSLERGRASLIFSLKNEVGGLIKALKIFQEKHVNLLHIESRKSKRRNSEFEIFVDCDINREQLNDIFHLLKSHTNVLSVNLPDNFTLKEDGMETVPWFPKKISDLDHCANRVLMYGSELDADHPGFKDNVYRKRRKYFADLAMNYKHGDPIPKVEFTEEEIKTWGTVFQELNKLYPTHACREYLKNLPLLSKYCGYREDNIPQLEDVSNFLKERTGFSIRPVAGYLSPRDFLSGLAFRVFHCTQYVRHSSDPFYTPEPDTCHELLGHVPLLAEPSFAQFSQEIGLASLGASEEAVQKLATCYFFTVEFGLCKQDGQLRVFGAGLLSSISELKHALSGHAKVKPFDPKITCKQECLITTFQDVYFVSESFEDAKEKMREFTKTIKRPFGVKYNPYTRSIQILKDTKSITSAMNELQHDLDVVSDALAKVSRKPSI
Experiment: TPH1 in vitro inhibition assay (kinetic fluorescence)
Assay type: biochemical
Conditions: read-out: TPH1 Range (TPH1 inhibition IC50)
Summary of the method: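 Final mix: 15 nM MBP-TPH1, 30 μM Trp, 36 μM 6-methyltetrahydropterin, 25 μM ferrous ammonium sulfate, 50 mM MES pH 7.1, 1% DMSO, room temperature.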

Compound	pIC50
Cc1ccn(-c2cc(-c3ccc(-c4nnc(C)o4)c(F)c3)ccc2[C@@H](Oc2cc(N3CCC4(CC3)CN[C@H](C(=O)O)C4)nc(N)n2)C(F)(F)F)n1 [Example 1cb, (S)-8-(2-amino-6-((R)-2,2,2-trifluoro-1-(3′-fluoro-4′-(5-methyl-1,3,4-oxadiazol-2-yl)-3-(3-methyl-1H-pyrazol-1-yl)-[1,1′-biphenyl]-4-yl)ethoxy)pyrimidin-4-yl)-2,8-diazaspiro[4.5]decane-3-carboxylic acid]	> 7.30
CCCOc1ccc(-c2ccc([C@@H](Oc3cc(N4CCC5(CC4)CN[C@H](C(=O)O)C5)nc(N)n3)C(F)(F)F)c(-n3ccc(C)n3)c2)cc1 [Example 1cd, (S)-8-(2-amino-6-((R)-2,2,2-trifluoro-1-(3-(3-methyl-1H-pyrazol-1-yl)-4′-propoxy-[1,1′-biphenyl]-4-yl)ethoxy)pyrimidin-4-yl)-2,8-diazaspiro[4.5]decane-3-carboxylic acid]	> 7.30
Cc1ccn(-c2cc(-c3ccc(S(N)(=O)=O)cc3)ccc2[C@@H](Oc2cc(N3CCC4(CC3)CN[C@H](C(=O)O)C4)nc(N)n2)C(F)(F)F)n1 [Example 1cf, (S)-8-(2-amino-6-((R)-2,2,2-trifluoro-1-(3-(3-methyl-1H-pyrazol-1-yl)-4′-sulfamoyl-[1,1′-biphenyl]-4-yl)ethoxy)pyrimidin-4-yl)-2,8-diazaspiro[4.5]decane-3-carboxylic acid]	6.52 to 7.30
Cc1ccn(-c2cc(-c3ccc(C(N)=O)cc3)ccc2[C@@H](Oc2cc(N3CCC4(CC3)CN[C@H](C(=O)O)C4)nc(N)n2)C(F)(F)F)n1 [Example 1cg, (S)-8-(2-amino-6-((R)-1-(4′-carbamoyl-3-(3-methyl-1H-pyrazol-1-yl)-[1,1′-biphenyl]-4-yl)-2,2,2-trifluoroethoxy)pyrimidin-4-yl)-2,8-diazaspiro[4.5]decane-3-carboxylic acid]	> 7.30
Cc1ccn(-c2cc(-c3ccc(C(=O)N4CCNCC4)cc3)ccc2[C@@H](Oc2cc(N3CCC4(CC3)CN[C@H](C(=O)O)C4)nc(N)n2)C(F)(F)F)n1 [Example 1cj, (S)-8-(2-amino-6-((R)-2,2,2-trifluoro-1-(3-(3-methyl-1H-pyrazol-1-yl)-4′-(piperazine-1-carbonyl)-[1,1′-biphenyl]-4-yl)ethoxy)pyrimidin-4-yl)-2,8-diazaspiro[4.5]decane-3-carboxylic acid]	> 7.30
Cc1ccn(-c2cc(-c3ccc(OCC(C)C)cc3)ccc2[C@@H](Oc2cc(N3CCC4(CC3)CN[C@H](C(=O)O)C4)nc(N)n2)C(F)(F)F)n1 [Example 1cl, (S)-8-(2-amino-6-((R)-2,2,2-trifluoro-1-(4′-isobutoxy-3-(3-methyl-1H-pyrazol-1-yl)-[1,1′-biphenyl]-4-yl)ethoxy)pyrimidin-4-yl)-2,8-diazaspiro[4.5]decane-3-carboxylic acid]	> 7.30
Cc1ccn(-c2cc(-c3ccc4c(c3)CCCO4)ccc2[C@@H](Oc2cc(N3CCC4(CC3)CN[C@H](C(=O)O)C4)nc(N)n2)C(F)(F)F)n1 [Example 1co, (S)-8-(2-amino-6-((R)-1-(4-(chroman-6-yl)-2-(3-methyl-1H-pyrazol-1-yl)phenyl)-2,2,2-trifluoroethoxy)pyrimidin-4-yl)-2,8-diazaspiro[4.5]decane-3-carboxylic acid]	> 7.30
Cc1ccn(-c2cc(-c3ccc(C)c(CO)c3)ccc2[C@@H](Oc2cc(N3CCC4(CC3)CN[C@H](C(=O)O)C4)nc(N)n2)C(F)(F)F)n1 [Example 1cq, (S)-8-(2-amino-6-((R)-2,2,2-trifluoro-1-(3′-(hydroxymethyl)-4′-methyl-3-(3-methyl-1H-pyrazol-1-yl)-[1,1′-biphenyl]-4-yl)ethoxy)pyrimidin-4-yl)-2,8-diazaspiro[4.5]decane-3-carboxylic acid]	> 7.30
Cc1ccn(-c2cc(-c3ccc(CO)c(C)c3)ccc2[C@@H](Oc2cc(N3CCC4(CC3)CN[C@H](C(=O)O)C4)nc(N)n2)C(F)(F)F)n1 [Example 1cr, (S)-8-(2-amino-6-((R)-2,2,2-trifluoro-1-(4′-(hydroxymethyl)-3′-methyl-3-(3-methyl-1H-pyrazol-1-yl)-[1,1′-biphenyl]-4-yl)ethoxy)pyrimidin-4-yl)-2,8-diazaspiro[4.5]decane-3-carboxylic acid]	> 7.30
CCOc1ccc(-c2ccc([C@@H](Oc3cc(N4CCC5(CC4)CN[C@H](C(=O)O)C5)nc(N)n3)C(F)(F)F)c(-n3ccc(C)n3)c2)cn1 [Example 1cs, (S)-8-(2-amino-6-((R)-1-(4-(6-ethoxypyridin-3-yl)-2-(3-methyl-1H-pyrazol-1-yl)phenyl)-2,2,2-trifluoroethoxy)pyrimidin-4-yl)-2,8-diazaspiro[4.5]decane-3-carboxylic acid]	> 7.30

The remaining lines, values ahead:

pIC50	Compound
> 7.30	Cc1ccn(-c2cc(-c3ccc(S(C)(=O)=O)cc3)ccc2[C@@H](Oc2cc(N3CCC4(CC3)CN[C@H](C(=O)O)C4)nc(N)n2)C(F)(F)F)n1 [Example 1cc, (S)-8-(2-amino-6-((R)-2,2,2-trifluoro-1-(3-(3-methyl-1H-pyrazol-1-yl)-4′-(methylsulfonyl)-[1,1′-biphenyl]-4-yl)ethoxy)pyrimidin-4-yl)-2,8-diazaspiro[4.5]decane-3-carboxylic acid]
> 7.30	Cc1ccn(-c2cc(-c3ccc(C(=O)NCCN4CCOCC4)cc3)ccc2[C@@H](Oc2cc(N3CCC4(CC3)CN[C@H](C(=O)O)C4)nc(N)n2)C(F)(F)F)n1 [Example 1ce, (S)-8-(2-amino-6-((R)-2,2,2-trifluoro-1-(3-(3-methyl-1H-pyrazol-1-yl)-4′-((2-morpholinoethyl)carbamoyl)-[1,1′-biphenyl]-4-yl)ethoxy)pyrimidin-4-yl)-2,8-diazaspiro[4.5]decane-3-carboxylic acid]
6.52 to 7.30	CNC(=O)c1ccc(-c2ccc([C@@H](Oc3cc(N4CCC5(CC4)CN[C@H](C(=O)O)C5)nc(N)n3)C(F)(F)F)c(-n3ccc(C)n3)c2)cc1 [Example 1ch, (S)-8-(2-amino-6-((R)-2,2,2-trifluoro-1-(3-(3-methyl-1H-pyrazol-1-yl)-4′-(methylcarbamoyl)-[1,1′-biphenyl]-4-yl)ethoxy)pyrimidin-4-yl)-2,8-diazaspiro[4.5]decane-3-carboxylic acid]
> 7.30	COc1ccc(-c2ccc([C@@H](Oc3cc(N4CCC5(CC4)CN[C@H](C(=O)O)C5)nc(N)n3)C(F)(F)F)c(-n3ccc(C)n3)c2)cc1F [Example 1ci, (S)-8-(2-amino-6-((R)-2,2,2-trifluoro-1-(3′-fluoro-4′-methoxy-3-(3-methyl-1H-pyrazol-1-yl)-[1,1′-biphenyl]-4-yl)ethoxy)pyrimidin-4-yl)-2,8-diazaspiro[4.5]decane-3-carboxylic acid]
> 7.30	Cc1ccn(-c2cc(-c3ccc(C(=O)N(C)C)cc3)ccc2[C@@H](Oc2cc(N3CCC4(CC3)CN[C@H](C(=O)O)C4)nc(N)n2)C(F)(F)F)n1 [Example 1ck, (S)-8-(2-amino-6-((R)-1-(4′-(dimethylcarbamoyl)-3-(3-methyl-1H-pyrazol-l-y)-[1,1′-biphenyl]-4-yl)-2,2,2-trifluoroethoxy)pyrimidin-4-yl)-2,8-diazaspiro[4.5]decane-3-carboxylic acid]
> 7.30	CCN(CC)C(=O)c1ccc(-c2ccc([C@@H](Oc3cc(N4CCC5(CC4)CN[C@H](C(=O)O)C5)nc(N)n3)C(F)(F)F)c(-n3ccc(C)n3)c2)cc1 [Example 1cm, (S)-8-(2-amino-6-((R)-1-(4′-(diethylcarbamoyl)-3-(3-methyl-1H-pyrazol-1-yl)-[l,l′-biphenyl]-4-yl)-2,2,2-trifluoroethoxy)pyrimidin-4-yl)-2,8-diazaspiro[4.5]decane-3-carboxylic acid]
> 7.30	Cc1ccn(-c2cc(-c3ccc(OCC(C)(C)C)cc3)ccc2[C@@H](Oc2cc(N3CCC4(CC3)CN[C@H](C(=O)O)C4)nc(N)n2)C(F)(F)F)n1 [Example 1cn, (S)-8-(2-amino-6-((R)-2,2,2-trifluoro-1-(3-(3-methyl-1H-pyrazol-1-yl)-4′-(neopentyloxy)-[1,1′-biphenyl]-4-yl)ethoxy)pyrimidin-4-yl)-2,8-diazaspiro[4.5]decane-3-carboxylic acid]
> 7.30	Cc1ccn(-c2cc(-c3cccc(C(=O)O)c3)ccc2[C@@H](Oc2cc(N3CCC4(CC3)CN[C@H](C(=O)O)C4)nc(N)n2)C(F)(F)F)n1 [Example 1d, (S)-8-(2-amino-6-((R)-1-(3′-carboxy-3-(3-methyl-1H-pyrazol-1-yl)-[1,1′-biphenyl]-4-yl)-2,2,2-trifluoroethoxy)pyrimidin-4-yl)-2,8-diazaspiro[4.5]decane-3-carboxylic acid]
6.52 to 7.30	Cc1ccn(-c2cc(C3=CCNCC3)ccc2[C@@H](Oc2cc(N3CCC4(CC3)CN[C@H](C(=O)O)C4)nc(N)n2)C(F)(F)F)n1 [Example 1f, (S)-8-(2-amino-6-((R)-2,2,2-trifluoro-1-(2-(3-methyl-1H-pyrazol-1-yl)-4-(1,2,3,6-tetrahydropyridin-4-yl)phenyl)ethoxy)pyrimidin-4-yl)-2,8-diazaspiro[4.5]decane-3-carboxylic acid]
6.52 to 7.30	Cc1ccn(-c2cc(-c3cnoc3)ccc2[C@@H](Oc2cc(N3CCC4(CC3)CN[C@H](C(=O)O)C4)nc(N)n2)C(F)(F)F)n1 [Example 1i, (S)-8-(2-amino-6-((R)-2,2,2-trifluoro-1-(4-(isoxazol-4-yl)-2-(3-methyl-1H-pyrazol-1-yl)phenyl)ethoxy)pyrimidin-4-yl)-2,8-diazaspiro[4.5]decane-3-carboxylic acid]
